Results published in patent US4649145A, “Thiazole derivatives” (Hoechst UK Limited, priority 1982, dated 1987).

system: gastric acid secretion in the perfused rat stomach; test: antisecretory activity in the perfused rat stomach (inhibition of histamine- or pentagastrin-stimulated gastric acid secretion); format: in vivo; details: Rattus norvegicus, iv, read-out: ID50 (amount of compound required to inhibit the stimulated secretion by 50%)
Protocol: Compounds of this invention were tested for antisecretory activity in the perfused rat stomach. The method of Ghosh and Schild, Brit. […] J. […] After the secretion plateau was reached, the test compound was administered i.v. and the amount of compound required to inhibit the stimulated secretion by 50% was determined.

`CN/C(=N/CCSCc1nc[nH]c1C)NC#N` [Cimetidine, N--cyanoN'--methylN"--{2[(4methyl-5-imidazolyl)methyl-thio]ethyl}guanidin, reference compound] showed an ED50 of 2.5 mg/kg.

same assay, conditions: iv; perfused rat stomach; i.v.; acid secretion stimulated by infusing either histamine or pentagastrin at a constant rate; read-out: ID50 (amount of compound required to inhibit the stimulated secretion by 50%)

Going from `NC(N)=Nc1nc(CSCCNC2=NC(=O)CN2)cs1` [Compound 64] to `CC1NC(NCCSCc2csc(N=C(N)N)n2)=NC1=O` (centres unmarked) [Compound 65], the ED50 rises from 0.45 mg/kg to 0.7 mg/kg (1.6-fold).

`CCCCC1NC(NCCSCc2csc(N=C(N)N)n2)=NC1=O` (centres unmarked) [Compound 69] and `CCCCCCC1NC(NCCSCc2csc(N=C(N)N)n2)=NC1=O` (centres unmarked) [Compound 72] are within 1.5-fold of each other in ED50: 0.15 mg/kg for the first, 0.16 mg/kg for the second.

Going from `CCC(C)C1NC(NCCSCc2csc(N=C(N)N)n2)=NC1=O` (centres unmarked) [Compound 70] to `CC(C)CC1NC(NCCSCc2csc(N=C(N)N)n2)=NC1=O` (centres unmarked) [Compound 71], the ED50 falls from 1.5 mg/kg to 0.2 mg/kg (7.5-fold).

Going from `NC(N)=Nc1nc(CSCCNC2=NC(=O)C(Cc3ccccc3)N2)cs1` (centres unmarked) [Compound 74] to `NC(N)=Nc1nc(CSCCNC2=NC(=O)C(=Cc3ccccc3)N2)cs1` [Compound 80], the ED50 falls from 2.5 mg/kg to 0.5 mg/kg (5-fold).

Going from `NC(N)=Nc1nc(CSCCNC2=NC(=O)C(c3ccccc3)(c3ccccc3)N2)cs1` [Compound 77] to `NC(N)=Nc1nc(CSCCNC2=NC(=O)C(=Cc3cccc(Oc4ccccc4)c3)N2)cs1` [Compound 96, 2[2-[(2-Guanidino-4-thiazolyl)]methylthio]ethylamino-5-(3-phenoxybenzylidenyl)-imidazolidin-4-one], the ED50 rises from 0.5 mg/kg to 10 mg/kg (20-fold).

First: CC1(C)NC(NCCSCc2csc(N=C(N)N)n2)=NC1=O [Compound 78]
Second: CC(C)=C1NC(NCCSCc2csc(N=C(N)N)n2)=NC1=O [Compound 91]
The ED50 of the first is 5.6-fold higher: 1 mg/kg for the first, 0.18 mg/kg for the second.

Going from `COc1ccc(C=C2NC(NCCSCc3csc(N=C(N)N)n3)=NC2=O)cc1` [Compound 81] to `NC(N)=Nc1nc(CSCCNC2=NC(=O)C(=Cc3ccc([N+](=O)[O-])cc3)N2)cs1` [Compound 82], the ED50 falls from 1.2 mg/kg to 0.6 mg/kg (2-fold).

Compared with `NC(N)=Nc1nc(CSCCNC2=NC(=O)C(=Cc3ccc(C(F)(F)F)cc3)N2)cs1` [Compound 83], `NC(N)=Nc1nc(CSCCNC2=NC(=O)C(=Cc3cccnc3)N2)cs1` [Compound 97] is 7-fold lower in ED50: 3.5 mg/kg for the first, 0.5 mg/kg for the second.

Going from `NC(N)=Nc1nc(CSCCNC2=NC(=O)C(=Cc3ccco3)N2)cs1` [Compound 85] to `NC(N)=Nc1nc(CSCCNC2=NC(=O)C(=CC=Cc3ccco3)N2)cs1` [Compound 86], the ED50 falls from 0.2 mg/kg to 0.02 mg/kg (10-fold).

`CC=C1NC(NCCSCc2csc(N=C(N)N)n2)=NC1=O` [Compound 87] and `CC(C)C=C1NC(NCCSCc2csc(N=C(N)N)n2)=NC1=O` [Compound 92] are within 1.5-fold of each other in ED50: 0.1 mg/kg for the first, 0.07 mg/kg for the second.

Compared with `CCCC=C1NC(NCCSCc2csc(N=C(N)N)n2)=NC1=O` [Compound 88], `CCCCC=C1NC(NCCSCc2csc(N=C(N)N)n2)=NC1=O` [Compound 94] is 1.7-fold lower in ED50: 0.1 mg/kg for the first, 0.06 mg/kg for the second.

First: CCCCCC=C1NC(NCCSCc2csc(N=C(N)N)n2)=NC1=O [Compound 89]
Second: CCC(C)C=C1NC(NCCSCc2csc(N=C(N)N)n2)=NC1=O (centres unmarked) [Compound 93]
The ED50 of the first is 2.1-fold higher: 0.15 mg/kg for the first, 0.07 mg/kg for the second.

In the case of `NC(N)=Nc1nc(CSCCNC2=NC(=O)C(=C3CCCCC3)N2)cs1` [Compound 90], the ED50 is reported as 0.18 mg/kg.
